# Biological target: T1, gamma-secretase (Homo sapiens, UniProt P49768)
# T1 construct: partially purified extract of IMR-32 cell membranes as the gamma-secretase enzyme preparation; endogenous in cells; host or cells: IMR-32 cell membranes (partially purified extract)
# Test: Gamma-secretase APP enzyme assay
# Type: biochemical
# Conditions: cleavage of MBP-C125 Swe substrate at the Aβ40 site; partially purified extract of IMR-32 cell membranes; ELISA
# Text: The gamma-secretase APP enzyme assay was designed to measure the specific proteolytic cleavage of an APP substrate (MBP-C125 Swe fusion protein) at the Aβ40 site. The assay used a partially purified extract of IMR-32 cell membranes as the gamma-secretase enzyme preparation and a recombinant fusion protein containing the C-terminal 125 amino acids of the Swedish variant of the APP (MBP-C125swe) as the substrate. This assay involved two steps beginning with the enzymatic reaction generating a cleavage product that was captured with an immobilized antibody specific for the neo-epitope Aβ40 site. The captured cleavage product was then detected in a sandwich ELISA assay with a biotinylated reporter antibody that is specific to Aβ (17-28). Streptavidin-linked alkaline phosphatase was then added that would generate a fluorescent signal proportional to the amount of cleavage product. This assay was used to discover small molecule inhibitors of gamma-secretase.
# Briefly, a 149 mg/ml solution of BIGCHAP detergent was made with water at 42° C. and then rotated for 30 minutes at the same temperatures This warmed solution of BigCHAPS (N,N-Bis(3-D-gluconamidopropyl)cholamide) detergent was used to dissolve Brain Extract Type-V (lipid containing a minimum of 40% phosphatidylethanolamine) from Signa (St. Louis, Mo.) to a concentration of 8 mg/ml. This solution containing BigCHAPS and lipid at 8 mg/ml is then diluted to 0.53 mg/ml lipid with a pre-warmed solution of Hepes and sodium chloride. This final solution containing Hepes buffer, sodium chloride, BigCHAPS detergent and lipid is used to create working solutions of both gamma-secretase (25 Units) and the MBP-C125 substrate (0.05 mg/ml).
# Gamma-secretase was then added to a 96-well micro-titre plate and then incubated with various concentrations of inhibitor for 30 minutes at 37° C. MBPC125 substrate was then added to initiate the reaction that would run for two hours at 37° C. The reaction was quenched with the addition of SDS to a final concentration of 0.1% and then 100 μl of the reaction mixture was transferred to a capture ELISA plate and incubated overnight at 4° C. Detection of the cleavage product was performed using a standard sandwich ELISA assay and quantified using a six point standard curve.
row,IC50 [nM],Compound
1,0.1 to 100,"O=S(=O)(c1ccc(C(F)(F)F)cc1)N1c2ncccc2-c2n[nH]cc2C1C1CC1 (centres unmarked) [4-cyclopropyl-5-(4-(trifluoromethyl)phenylsulfonyl)-4,5-dihydro-2H-pyrazolo[4,3-c][1,8]naphythyridine]"
2,0.1 to 100,"CC1c2c[nH]nc2-c2cc(F)ccc2N1S(=O)(=O)c1ccc(Cl)cc1 (single isomer, unassigned) [5-[(4-chlorophenyl)sulfonyl]-8-fluoro-4-methyl-4,5-dihydro-2H-pyrazolo[4,3-c]quinoline]"
3,0.1 to 100,"O=S(=O)(c1ccc(Cl)cn1)N1c2ccc(F)cc2-c2n[nH]cc2C1C1CC1 (centres unmarked) [5-(5-chloropyridin-2-ylsulfonyl)-4-cyclopropyl-8-fluoro-4,5-dihydro-1H-pyrazolo[4,3-c]quinoline]"
4,1000 to 10000,"O=c1c2cn[nH]c2c2cc(F)ccc2n1S(=O)(=O)c1ccc(Cl)cc1 [5-(4-chlorophenylsulfonyl)-8-fluoro-1H-pyrazolo[4,3-c]quinolin-4(5H)-one]"
5,101 to 500,"CC1c2c[nH]nc2-c2ccccc2N1S(=O)(=O)c1ccccn1 (centres unmarked) [4-methyl-5-(pyridin-2-ylsulfonyl)-4,5-dihydro-2H-pyrazolo[4,3-c]quinoline]"
6,501 to 1000,"O=S(=O)(c1ccc(Cl)cc1)N1Cc2c[nH]nc2-c2cc(Cl)ccc21 [8-chloro-5-[(4-chlorophenyl)sulfonyl]-4,5-dihydro-2H-pyrazolo[4,3-c]quinoline]"
7,0.1 to 100,"O=S(=O)(c1ccc(OC(F)F)cc1)N1c2ccc(F)cc2-c2n[nH]cc2C1C1CC1 (centres unmarked) [4-cyclopropyl-5-(4-(difluoromethoxy)phenylsulfonyl)-8-fluoro-4,5-dihydro-1H-pyrazolo[4,3-c]quinoline]"
8,101 to 500,"O=S(=O)(c1ccc(Cl)cc1)N1Cc2cn[nH]c2-n2ccnc21 [5-(4-chlorophenylsulfonyl)-4,5-dihydro-1H-imidazo[1,2-a]pyrazolo[4,3-e]pyrimidine]"
9,0.1 to 100,"O=S(=O)(c1ccc(F)cc1)N1c2cc(F)c(F)cc2-c2n[nH]cc2C1C1CC1 (single isomer, unassigned) [4-cyclopropyl-7,8-difluoro-5-(4-fluorophenylsulfonyl)-4,5-dihydro-2H-pyrazolo[4,3-c]quinoline]"
10,1000 to 10000,"O=S(=O)(c1ccc(Cl)cc1)N1Cc2c(O)n[nH]c2-c2ccccc21 [5-[(4-chlorophenyl)sulfonyl]-4,5-dihydro-1H-pyrazolo{4,3-c]quinolin-3-ol]"
11,0.1 to 100,"CC1c2cn[nH]c2C2CCCCC2N1S(=O)(=O)c1ccc(Cl)cc1 (racemic) [5-(4-chlorophenylsulfonyl)-4-methyl-4,5,5a,6,7,8,9,9a-octahydro-1H-pyrazolo[4,3-c]quinoline]"
12,0.1 to 100,"CC[C@@H]1c2cn[nH]c2-c2cc(F)c(F)cc2N1S(=O)(=O)c1ccc(C(F)(F)F)cc1 [(R)-4-ethyl-7,8-difluoro-5-(4-(trifluoromethyl)phenylsulfonyl)-4,5-dihydro-1H-pyrazolo[4,3-c]quinoline]"
13,0.1 to 100,"O=[N+]([O-])c1ccc(S(=O)(=O)N2c3cc(F)c(F)cc3-c3[nH]ncc3[C@H]2C2CC2)cc1 [(R)-4-cyclopropyl-7,8-difluoro-5-(4-nitrophenylsulfonyl)-4,5-dihydro-1H-pyrazolo[4,3-c]quinoline]"
14,101 to 500,"CC1c2c[nH]nc2-c2cc(F)ccc2N1S(=O)(=O)c1cnn(C)c1 (centres unmarked) [8-fluoro-4-methyl-5-(1-methyl-1H-pyrazol-4-ylsulfonyl)-4,5-dihydro-1H-pyrazolo[4,3-c]quinoline]"
15,0.1 to 100,"CC1c2cn[nH]c2-c2ncccc2N1S(=O)(=O)c1ccc(Cl)cc1 (centres unmarked) [5-[(4-chlorophenyl)sulfonyl]-4-methyl-4,5-dihydro-1H-pyrazolo[4,3-c]-1,5-naphthyridine]"
16,0.1 to 100,"O=S(=O)(c1ccc(C(F)(F)F)nc1)N1c2cc(F)c(F)cc2-c2[nH]ncc2C1C1CC1 (centres unmarked) [4-cyclopropyl-7,8-difluoro-5-(6-(trifluoromethyl)pyridin-3-ylsulfonyl)-4,5-dihydro-1H-pyrazolo[4,3-c]quinoline]"
17,0.1 to 100,"O=S(=O)(c1ccc(Cl)cc1)N1Cc2c[nH]nc2-c2ccccc21 [5-[(4-chlorophenyl)sulfonyl]-4,5-dihydro-1H-pyrazolo[4,3-c]quinoline]"
18,1000 to 10000,"Cc1n[nH]c2c1CN(S(=O)(=O)c1ccc(Cl)cc1)c1ccccc1-2 [5-[(4-chlorophenyl)sulfonyl]-3-methyl-4,5-dihydro-1H-pyrazolo[4,3-c]quinoline]"
19,0.1 to 100,"Nc1ccc(S(=O)(=O)N2c3cc(F)c(F)cc3-c3[nH]ncc3[C@H]2C2CC2)cc1 [(R)-4-(4-cyclopropyl-7,8-difluoro-1H-pyrazolo[4,3-c]quinolin-5(4H)-ylsulfonyl)aniline]"
20,0.1 to 100,"O=S(=O)(c1ccc(Cl)cc1)N1Cc2c[nH]nc2-c2ccc(F)cc21 [5-[(4-chlorophenyl)sulfonyl]-7-fluoro-4,5-dihydro-2H-pyrazolo[4,3-c]quinoline]"
21,0.1 to 100,"O=S(=O)(c1ccc(C(F)(F)F)cn1)N1c2cc(F)c(F)cc2-c2[nH]ncc2C1C1CC1 (centres unmarked) [4-cyclopropyl-7,8-difluoro-5-(5-(trifluoromethyl)pyridin-2-ylsulfonyl)-4,5-dihydro-1H-pyrazolo[4,3-c]quinoline]"
22,0.1 to 100,"O=S(=O)(c1ccc(C(F)(F)F)cc1)N1c2ccccc2-c2[nH]ncc2C12CC2 [5′-(4-(trifluoromethyl)phenylsulfonyl)-1′,5′-dihydrospiro[cyclopropane-1,4′-pyrazolo[4,3-c]quinoline]]"
23,0.1 to 100,"O=S(=O)(c1ccc(C(F)(F)F)nc1)N1c2ccccc2-c2[nH]ncc2C1C1CC1 (centres unmarked) [4-cyclopropyl-5-(6-(trifluoromethyl)pyridin-3-ylsulfonyl)-4,5-dihydro-1H-pyrazolo[4,3-c]quinoline]"
24,1000 to 10000,"O=c1c2cnn(S(=O)(=O)c3ccc(Cl)cc3)c2c2ccccc2n1S(=O)(=O)c1ccc(Cl)cc1 [1,5-bis(4-chlorophenylsulfonyl)-1H-pyrazolo[4,3-c]quinolin-4(5H)-one]"
25,0.1 to 100,"O=S(=O)(c1ccc(C(F)(F)F)cc1)N1c2cc(F)c(F)cc2-c2[nH]ncc2C1c1cccnc1 (centres unmarked) [7,8-difluoro-4-(pyridin-3-yl)-5-(4-(trifluoromethyl)phenylsulfonyl)-4,5-dihydro-1H-pyrazolo[4,3-c]quinoline]"
26,0.1 to 100,"O=S(=O)(c1ccc(OC(F)F)cc1)N1c2cc(F)c(F)cc2-c2[nH]ncc2[C@H]1C1CC1 [(R)-4-cyclopropyl-5-(4-(difluoromethoxy)phenylsulfonyl)-7,8-difluoro-4,5-dihydro-1H-pyrazolo[4,3-c]quinoline]"
27,0.1 to 100,"CC1c2c[nH]nc2-c2cccnc2N1S(=O)(=O)c1ccc(Cl)cc1 (centres unmarked) [5-(4-chlorophenylsulfonyl)-4-methyl-4,5-dihydro-2H-pyrazolo[4,3-c][1,8]naphthyridine]"
28,0.1 to 100,"O=S(=O)(c1ccc(F)cc1)N1c2ncccc2-c2n[nH]cc2C1C1CC1 (centres unmarked) [4-cyclopropyl-5-(4-fluorophenylsulfonyl)-4,5-dihydro-2H-pyrazolo[4,3-c][1,8]naphthyridine]"

# Same assay, conditions: cleavage of MBP-C125 Swe substrate at the Aβ40 site; partially purified extract of IMR-32 cell membranes; ELISA; enantiomer A
row,IC50 [nM],Compound
1,0.1 to 100,"O=S(=O)(c1ccc(C(F)(F)F)nc1)N1c2cc(F)c(F)cc2-c2[nH]ncc2C1C1CC1 (single isomer, unassigned) [4-cyclopropyl-7,8-difluoro-5-(6-(trifluoromethyl)pyridin-3-ylsulfonyl)-4,5-dihydro-1H-pyrazolo[4,3-c]quinoline]"
2,0.1 to 100,"CC1c2c[nH]nc2-c2cc(F)c(F)cc2N1S(=O)(=O)c1ccc(Cl)cc1 (single isomer, unassigned) [5-(4-chlorophenylsulfonyl)-7,8-difluoro-4-methyl-4,5-dihydro-2H-pyrazolo[4,3-c]quinoline]"
3,0.1 to 100,"O=S(=O)(c1ccc(C(F)(F)F)nc1)N1c2ccc(F)cc2-c2n[nH]cc2C1C1CC1 (single isomer, unassigned) [4-cyclopropyl-8-fluoro-5-(6-(trifluoromethyl)pyridin-3-ylsulfonyl)-4,5-dihydro-2H-pyrazolo[4,3-c]quinoline]"

# Same assay, conditions: cleavage of MBP-C125 Swe substrate at the Aβ40 site; partially purified extract of IMR-32 cell membranes; ELISA; enantiomer B
row,IC50 [nM],Compound
1,0.1 to 100,"O=S(=O)(c1ccc(C(F)(F)F)nc1)N1c2cc(F)c(F)cc2-c2[nH]ncc2C1C1CC1 (single isomer, unassigned) [4-cyclopropyl-7,8-difluoro-5-(6-(trifluoromethyl)pyridin-3-ylsulfonyl)-4,5-dihydro-1H-pyrazolo[4,3-c]quinoline]"
2,0.1 to 100,"CC1c2c[nH]nc2-c2cc(F)c(F)cc2N1S(=O)(=O)c1ccc(Cl)cc1 (single isomer, unassigned) [5-(4-chlorophenylsulfonyl)-7,8-difluoro-4-methyl-4,5-dihydro-2H-pyrazolo[4,3-c]quinoline]"
3,0.1 to 100,"O=S(=O)(c1ccc(C(F)(F)F)nc1)N1c2ccc(F)cc2-c2n[nH]cc2C1C1CC1 (single isomer, unassigned) [4-cyclopropyl-8-fluoro-5-(6-(trifluoromethyl)pyridin-3-ylsulfonyl)-4,5-dihydro-2H-pyrazolo[4,3-c]quinoline]"

# Biological target: T2, gamma secretase (Mus musculus, UniProt P49769)
# T2 construct: host or cells: brain of PDAPP transgenic mice (in vivo)
# Test: not given
# Conditions: PDAPP mice, acute inhibition, in-vivo; cited from earlier work
row,Compound,Aβ in the brain
1,C[C@H](NC(=O)Cc1cc(F)cc(F)c1)C(=O)N[C@H](C(=O)OC(C)(C)C)c1ccccc1 [DAPT],reduction of Aβ in the brain

# From patent US20080021056A1, “Fused, Tricyclic Sulfonamide Inhibitors of Gamma Secretase” (priority 2006, published 2008)
